By EC50 is commonly meant the concentration giving half of the maximal effect. As a reminder, the IC50 is the concentration at which inhibition is half-maximal.

The subject of assay [1] is Cdc2 (Cdk1) tyrosine 15 phosphorylation in NCI-H1299 cells. Description: Cdc2 (Cdk1) tyrosine 15-phosphorylation-inhibitory effect in NCI-H1299 cells, camptothecin-treated (ELISA). The conditions noted are these: Homo sapiens, 200 nM camptothecin 16 hours, then test compound with nocodazole 8 hours, read-out: Cdc2-Y15 Phosphorylation-Inhibitory Effect (H1299, +camptothecin) (EC50). Format: cell-based. An excerpt:
Pharmacological Test 2 (Method of Determining Drug Potency with Cells (Cdc2 (Cdk1) Tyrosine 15-Phosphorylation-Inhibitory Effect))
Fetal bovine serum (FBS) was gotten from Morgate; media RPMI1640 and DMEM were from Invitrogen; camptothecin was from Sigma; gemcitabine was from Nippon Eli Lilly; nocodazole and protease inhibitor cocktail were from Sigma; rabbit anti-Cdc2 antibody and mouse anti-Cdc2 antibody were from Santa Cruz Biotechnology; rabbit anti-tyrosine 15-phosphorylated Cdc2 antibody and horseradish peroxidase-labeled anti-mouse IgG antibody were from Cell Signaling Technology; sure blue reserve TMB peroxidase substrate was from Kirkegaard and Perry Laboratories.
Human non-small cell lung cancer cells (NCI-H1299) and human colon cancer cells (WiDr) were gotten from American Type Culture Collection (ATCC).
In the method of using NCI-H1299 cells, the cells were suspended in a medium of 10% FBS-added RPMI1640, and the cell suspension was applied to a 96-well Nunclondelta-processed plastic plate (bought from Nunc), in an amount of 2000 cells/100 μL/well, in which the cells were incubated overnight in 5% CO2-95% air at 37° C. Camptothecin was dissolved in dimethyl sulfoxide (DMSO), and diluted with a medium of 10% FBS-added RPMI1640, and then this was applied to the plate on which the cells had been previously sowed, in an amount of 50 μL/well in such a manner that the final concentration of camptothecin could be 200 nM. Then, the cells were incubated for 16 hours at 37° C. in 5% CO2-95% air. A test compound was stepwise diluted with DMSO, then diluted with 4000 nM nocodazole-containing, 10% FBS-added RPMI1640, and applied to the plate on which the camptothecin-treated cells had been sowed, in an amount of 50 μL/well. […] Cdc2 was determined through ELISA as follows: A rabbit anti-Cdc2 antibody solution, which had been diluted 200-fold with 50 mM carbonate-bicarbonate buffer (pH 9.6), was applied to a 96-well maxisorpimmuno plate (bought from Nunc), in an amount of 50 μL/well, and statically kept overnight at 4° C. so as to fix the antibody on the plate. […]
In general terms: An ELISA detects its analyte on a solid surface through an enzyme-linked reagent.

The next assay has as its target T1, Wee1 kinase (Homo sapiens, UniProt P30291).
T1 construct: made in house; host or cells: Sf9 insect cells (recombinant baculovirus)
The assay can be described thus: Wee1 kinase-inhibitory effect (33P-ATP filter assay with GST-tagged Wee1). The class given is biochemical. The note with it: purified GST-Wee1, Poly(Lys,Tyr) substrate, 10 μM ATP, 30° C. for 30 minutes; read-out: Weel-Inhibitory Effect (IC50). An excerpt:
Pharmacological Test 1 (Wee1 Kinase-Inhibitory Effect)
(1) Purification of Wee1 Kinase:
A cDNA of Wee1 kinase with glutathion-S-transferase (GST) fused at the amino terminal thereof was inserted into a baculovirus expression vector to construct a recombinant baculovirus, with which cells of an insect cell line Sf9 were infected for high expression therein. The infected cells were collected and solubilized, and then the GST-tagged Wee1 kinase protein was adsorbed by a glutathion column, and eluted from the column with glutathion, and the active fraction was desalted in a desalting column to give a purified enzyme.
(2) Determination of Wee1 Kinase Activity:
In determination of the Wee1 kinase activity, a synthetic peptide, Poly(Lys,Tyr) Hydrobromide (Lys:Tyr (4:1)) bought from Sigma was used as the substrate.
The amount of the reaction liquid was 21.1 μL; and the composition of the reaction buffer was 50 mM Tris-HCl buffer (pH 7.4)/10 mM magnesium chloride/1 mM dithiothreitol. The purified Wee1 kinase, 2.5 μg of the substrate peptide, 10 μM of non-labeled adenosine triphosphate (ATP) and 1 μCi of [γ-^33P]-labeled ATP (2500 Ci/mmol or more) were added to it, and reacted at 30° C. for 30 minutes. Next, 10 μL of 350 mM phosphate buffer was added to the reaction system to stop the reaction. The substrate peptide was adsorbed by a P81 paper filter 96-well plate, then washed a few times with 130 mM phosphate buffer, and its radioactivity was counted with a liquid scintillation counter. The [γ-^33P]-labeled ATP was bought from Amersham Bioscience.
To add a test compound to the reaction system, the compound was diluted with dimethyl sulfoxide (DMSO) to prepare a series of dilutions. 1.1 μL of each dilution was added to the reaction system. As a control, 1.1 μL of DMSO was added to the reaction system.

T1 sequence (P30291 whole entry): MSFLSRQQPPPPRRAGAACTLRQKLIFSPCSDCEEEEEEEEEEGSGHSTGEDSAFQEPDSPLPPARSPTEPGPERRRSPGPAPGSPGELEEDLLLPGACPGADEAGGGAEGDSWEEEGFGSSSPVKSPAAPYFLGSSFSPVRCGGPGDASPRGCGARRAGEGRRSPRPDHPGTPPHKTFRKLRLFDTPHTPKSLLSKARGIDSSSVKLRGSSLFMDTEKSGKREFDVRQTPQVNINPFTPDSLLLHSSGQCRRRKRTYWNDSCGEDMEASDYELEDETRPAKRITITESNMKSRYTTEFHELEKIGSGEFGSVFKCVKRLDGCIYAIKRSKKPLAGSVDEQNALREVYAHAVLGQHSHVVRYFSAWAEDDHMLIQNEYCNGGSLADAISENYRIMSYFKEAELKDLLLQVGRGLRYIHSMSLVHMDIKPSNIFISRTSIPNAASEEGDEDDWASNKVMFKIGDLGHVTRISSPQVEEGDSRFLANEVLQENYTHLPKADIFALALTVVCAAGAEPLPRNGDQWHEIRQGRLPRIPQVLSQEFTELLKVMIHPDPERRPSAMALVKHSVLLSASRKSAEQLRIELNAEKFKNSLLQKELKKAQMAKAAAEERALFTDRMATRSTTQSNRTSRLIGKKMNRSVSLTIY

Take `C=CCn1c(=O)c2cnc(Nc3ccc(N4CCN(C)CC4)cc3)nc2n1-c1cccc(-n2ccccc2=O)n1` [Example 1, 6′-(2-allyl-6-{[4-(4-methylpiperazin-1-yl)phenyl]amino}-3-oxo-2,3-dihydro-1H-pyrazolo[3,4-d]pyrimidin-1-yl)-2H-1,2′-bipyridin-2-one]: the EC50 in assay [1] is 0.19 µM. Besides, the IC50 on Wee1 kinase was 0.016 µM.

In the case of `C=CCn1c(=O)c2cnc(Nc3ccc(N4CCN(C)CC4)cc3)nc2n1-c1cccc(-n2cc(F)ccc2=O)n1` [Example 5, 6′-(2-allyl-6-{[4-(4-methylpiperazin-1-yl)phenyl]amino}-3-oxo-2,3-dihydro-1H-pyrazolo[3,4-d]pyrimidin-1-yl)-5-fluoro-2H-1,2′-bipyridin-2-one], the EC50 in assay [1] was found to be 0.26 µM. Further, the IC50 at Wee1 kinase was found to be 0.018 µM.

`C=CCn1c(=O)c2cnc(Nc3ccc4c(c3)CN(C)CC4)nc2n1-c1cccc(-n2ccccc2=O)n1` [Example 30, 6′-{2-Allyl-6-[(2-methyl-1,2,3,4-tetrahydroisoquinolin-7-yl)amino]-3-oxo-2,3-dihydro-1H-pyrazolo[3,4-d]pyrimidin-1-yl}-2H-1,2′-bipyridin-2-one]: the EC50 in assay [1] came to 0.18 µM. Moreover, the IC50 at Wee1 kinase was found to be 0.0179 µM.

For the origin of these results see patent US8329711B2, “Pyridone-substituted-dihydropyrazolopyrimidinone derivative” (MSD K.K., priority 2007, dated 2012).
